This is an account of results in patent US7384966B2, “2-arylbenzothiazole derivatives” (Pharminxo Limited, priority 2004, dated 2008).

Like-named read-outs stand apart in the source and are kept apart here.

For one series, the system named is MDA 468. Kind of series: MTT assay, 3 day exposure, MDA 468. Particulars: Homo sapiens, MDA 468 (breast), read-out: GI50 values in cell lines, MDA 468. Format: cell-based. Here is the method:
(§1) A range of compounds were evaluated in MTT assays following 3 day exposure against a panel of two human breast cancer cell lines MCF-7 (ER+) and MDA 468 (ER−), and two colon cancer cell lines KM12 and HCC 2998. In general the breast cell lines were more sensitive to the agents and the MDA 468 line the most sensitive of the four (Table 2). The benchmark active compound was 5-fluoro-2-(3,4-dimethoxyphenyl)benzothiazole (1) with GI50 values<0.1 nM against the two breast cell lines. […] The most interesting series of compounds were those combining a 5-fluoro group with two oxygenated substituents in the 3′,4′-positions where minor, seemingly conservative, structural changes were associated with a dramatic variations in activity (when compared to 1). […] In summary, this in vitro screen led to the identification of the fluorinated 2-(3,4-dimethoxyphenyl)benzothiazole structure as a novel antitumor pharmacophore with the 5-fluoro analogue (1) astride a pinnacle of activity.
(§2) The assays/methods used to generate the results referred to herein are well known to those skilled in the art and therefore it has not been necessary to describe them in detail.
Background: Formazan colour is commonly taken as a measure of viable cells.

The test system of the next series is KM 12. Kind of series: MTT assay, 3 day exposure, KM12. The series is classed as cell-based, human. Particulars: KM 12 (colon), read-out: GI50 values in cell lines, KM 12. Here is the method:
as §1, §2

Another series relates to HCC 2998. Nature of the series: MTT assay, 3 day exposure, HCC 2998. The series is classed as cell-based. Particulars: Homo sapiens, read-out: GI50 values in cell lines, HCC 2998. How it is done: as §1, §2
The test system of a further series is MCF-7. Kind of series: MTT assay, 3 day exposure, MCF-7. Particulars: Homo sapiens, read-out: GI50 values in cell lines, MCF-7. Format: cell-based. Here is the method:
as §1, §2

Series [1] concerns MCF-7, MDA 468, KM12 and HCC 2998. Nature of the series: MTT assay, panel of four cell lines, results in words. Format: cell-based, human. The conditions noted are these: compared to compound 1. How it is done:
as §1

The mark [2] stands for this setting: 72 h, MTT, 3 day exposure, triplicate.
The mark [3] stands for this setting: Homo sapiens, KM12, 72 h, MTT, 3 day exposure, triplicate.
[4] abbreviates: HCC 2998, 72 h, HCC 2998 (colon), MTT, 3 day exposure, triplicate.
Setting [5] is: MCF7, 72 h, MCF-7 (breast), MTT, 3 day exposure, triplicate.
Where [6] appears, read: MCF7, MCF-7 (breast), value in nM.

Broadly, the GI50 is the concentration at which growth is held to half of that of the control. Usually melting point stands for the temperature of the solid-liquid transition. In the case of `COc1ccc(-c2nc3cc(F)ccc3s2)cc1I` [Compound 28, 5-Fluoro-2-(3-iodo-4-methoxyphenyl)benzothiazole], the melting point came out at 167 °C. Also, the GI50 in the series with MDA 468 (setting [2]) is 360 nM. Moreover, the concentration for 50% growth inhibition (GI50) in the series with KM 12 (setting [3]) is 6900 nM. Besides, the concentration for 50% growth inhibition (GI50) with HCC 2998 (setting [4]) stood at 940 nM. Moreover, in the series with MCF-7 (setting [5]), the concentration for 50% growth inhibition (GI50) was determined as 820 nM.

`COc1ccc(-c2nc3cc(F)ccc3s2)cc1Cl` [Compound 26, 5-fluoro 2-(3-Chloro-4-methoxyphenyl)benzothiazole]: the GI50 turned out to be 480 nM with MDA 468 (setting [2]), 7050 nM in the series on KM 12 (setting [3]), 2500 nM in the series with HCC 2998 (setting [4]) and 760 nM in the series on MCF-7 (setting [5]).

On to `COc1cc(-c2nc3cc(F)ccc3s2)cc(OC)c1OC` [Compound 43, 5-Fluoro-2-(3,4,5-trimethoxyphenyl)benzothiazole], for which the melting point lay within 120 to 122 °C. For the same compound, in the series on MDA 468 (setting [2]), the GI50 amounted to 2.1 nM. In addition, in the series with KM 12 (setting [3]), the GI50 stood at 13000 nM. Further, in series [1], the “growth inhibitory potency in words” value is “retained nanomolar inhibitory potency against the MCF-7 cell and MDA 468 cell lines”. Besides, the 50% growth inhibitory concentration (GI50) with HCC 2998 (setting [4]) was 21100 nM. Moreover, the GI50 in the series with MCF-7 (setting [5]) was found to be 1.9 nM.

For the compound `COc1cc(-c2nc3cc(F)ccc3s2)ccc1O` [Compound 6, 5-Fluoro-2-(4-hydroxy-3-methoxyphenyl)benzothiazole], the melting point was 156 °C. For the same compound, the “growth inhibitory potency in words” value in series [1] is listed as “dyschemotherapeutic effect”.

On to `Oc1ccc(-c2nc3cc(F)ccc3s2)cc1O` [Compound 9, 5-Fluoro-2-(3,4-dihydroxyphenyl)benzothiazole], for which the melting point was 197 °C. The “growth inhibitory potency in words” value in series [1] is given as “dyschemotherapeutic effect”.

As for `COc1ccc(-c2nc3cc(F)ccc3s2)cc1Br` [Compound 27, 2-(3-Bromo-4-methoxyphenyl)-5-fluorobenzothiazole], the melting point lay in the range of 173 to 175 °C. The 50% growth inhibitory concentration (GI50) in the series on MDA 468 (setting [2]) worked out at 420 nM. In the series with KM 12 (setting [3]), the GI50 stood at 6700 nM. Moreover, the 50% growth inhibitory concentration (GI50) with HCC 2998 (setting [4]) amounted to 3450 nM. Also, the GI50 in the series with MCF-7 (setting [5]) was 850 nM.

In turn, `Fc1ccc2sc(-c3ccc4c(c3)OCO4)nc2c1` [Compound 7, 5-Fluoro-2-(3,4-methylenedioxyphenyl)benzothiazole] registered a melting point of 161 to 164 °C. In addition, in the series with MDA 468 (setting [2]), the GI50 is 570 nM. In addition, the GI50 in the series with KM 12 (setting [3]) worked out at 25100 nM. Besides, the “growth inhibitory potency in words” value in series [1] was “dyschemotherapeutic effect”. Also, in the series on HCC 2998 (setting [4]), the GI50 worked out at 22300 nM. The GI50 in the series with MCF-7 (setting [5]) worked out at 20700 nM.

`COc1ccc(-c2nc3cc(F)ccc3s2)cc1OC(=O)c1ccccc1Cl` [Compound 15, 2-[3-(2-Chlorobenzoyloxy)-4-methoxyphenyl]-5-fluorobenzothiazole]: the melting point was found to be 190 °C.

Regarding `COc1ccc(-c2nc3cc(F)ccc3s2)cc1` [Compound 29, 5-Fluoro-2-(4-methoxyphenyl)benzothiazole], the melting point is 123 to 124 °C. In addition, the GI50 in the series on MDA 468 (setting [2]) worked out at 330 nM. In the series on KM 12 (setting [3]), the GI50 was 24600 nM. The concentration for 50% growth inhibition (GI50) in the series on HCC 2998 (setting [4]) is 12400 nM. Besides, the GI50 in the series with MCF-7 (setting [5]) was determined as 490 nM.

For `COc1ccc(-c2nc3cc(F)ccc3s2)c(OC)c1OC` [Compound 50, 2-(2,3,4-Trimethoxyphenyl)-5-fluorobenzothiazole], the melting point lay in the range of 109 to 110 °C. For the same compound, the 50% growth inhibitory concentration (GI50) in the series with MDA 468 (value in nM) was 336 nM. In addition, in the series on KM 12 (value in nM), the GI50 came out at 2905.3 nM. In addition, in the series on HCC 2998 (HCC 2998, HCC 2998 (colon), value in nM), the GI50 was determined as 203 nM. Besides, the 50% growth inhibitory concentration (GI50) in the series with MCF-7 (setting [6]) turned out to be 157 nM.

Turning to `COc1ccc(-c2nc3cc(F)ccc3s2)cc1OC(=O)c1ccccc1Br` [Compound 16, 2-[3-(2-Bromobenzoyloxy)-4-methoxyphenyl]-5-fluorobenzothiazole], the melting point fell in the range of 220 to 223 °C.

Consider `CCOc1cc(-c2nc3cc(F)ccc3s2)ccc1OC` [Compound 45, 2-(3-Ethoxy-4-methoxyphenyl)-5-fluorobenzothiazole], for which the melting point was in the range of 136 to 139 °C. The GI50 in the series with MDA 468 (setting [2]) came to 92 nM. Moreover, the GI50 in the series on KM 12 (setting [3]) came out at 5420 nM. In series [1], the “growth inhibitory potency in words” value is on record as “dyschemotherapeutic effect”. The concentration for 50% growth inhibition (GI50) with HCC 2998 (setting [4]) worked out at 3320 nM. Further, in the series with MCF-7 (setting [5]), the concentration for 50% growth inhibition (GI50) is 80 nM.

With `COc1ccc(-c2nc3cc(F)ccc3s2)cc1F` [Compound 25, 5-Fluoro-2-(3-fluoro-4-methoxyphenyl)benzothiazole], the melting point is 157 to 159 °C. For the same compound, the GI50 in the series with MDA 468 (setting [2]) turned out to be 640 nM. Also, the GI50 with KM 12 (setting [3]) turned out to be 20600 nM. Moreover, the 50% growth inhibitory concentration (GI50) in the series on HCC 2998 (setting [4]) amounted to 13700 nM. Moreover, the GI50 with MCF-7 (setting [5]) was found to be 870 nM.

As for `COc1ccc(-c2nc3cc(Cl)ccc3s2)cc1OC` [Compound 23, 5-Chloro-2-(3,4-dimethoxyphenyl)benzothiazole], the melting point fell in the range of 154 to 155 °C. Further, the concentration for 50% growth inhibition (GI50) with MDA 468 (setting [2]) stood at 1000 nM. In the series on KM 12 (setting [3]), the GI50 was 12400 nM. The “growth inhibitory potency in words” value in series [1] was “essentially abolished inhibitory potency”. The 50% growth inhibitory concentration (GI50) in the series on HCC 2998 (setting [4]) worked out at 4880 nM. In addition, the 50% growth inhibitory concentration (GI50) in the series on MCF-7 (setting [5]) was 27900 nM.

On to `COc1ccc(-c2nc3cc(F)ccc3s2)cc1OC(=O)c1ccc([N+](=O)[O-])cc1` [Compound 18, 5-Fluoro-2-[3-(4-nitrobenzoyloxy)-4-methoxyphenyl]benzothiazole], for which the melting point was 198 °C.

The compound `CCC(=O)Oc1cc(-c2nc3cc(F)ccc3s2)ccc1OC` [Compound 13, 5-Fluoro-2-(3-propionyloxy-4-methoxyphenyl)benzothiazole] had a melting point of 150 °C.

The compound `CCCC(=O)Oc1cc(-c2nc3cc(F)ccc3s2)ccc1OC` [Compound 47, 2-(3-Butyroyloxy-4-methoxyphenyl)-5-fluorobenzothiazole] returned a melting point of 125 °C.

Take `COc1ccc(-c2nc3cc(F)ccc3s2)cc1OC(=O)c1ccccc1` [Compound 14, 2-(3-Benzoyloxy-4-methoxyphenyl)-5-fluorobenzothiazole]: the melting point was determined as 160 °C.

As to `COc1cc(OC)cc(-c2nc3cc(F)ccc3s2)c1` [Compound 42, 5-Fluoro-2-(3,5-dimethoxyphenyl)benzothiazole], the melting point was found to be 115 °C. Further, the GI50 with MDA 468 (setting [2]) was 310 nM. Besides, the GI50 with KM 12 (setting [3]) came to 7550 nM. Moreover, the “growth inhibitory potency in words” value in series [1] is recorded as “only low micromolar inhibitory potency”. Besides, the concentration for 50% growth inhibition (GI50) in the series with HCC 2998 (setting [4]) came out at 5210 nM. Besides, the GI50 with MCF-7 (setting [5]) was 1230 nM.

Regarding `COc1cc(-c2nc3cc(F)ccc3s2)ccc1OC(=O)c1cccc([N+](=O)[O-])c1` [Compound 21, 5-Fluoro-2-[4-(3-nitrobenzoyloxy)-3-methoxyphenyl]benzothiazole], the melting point turned out to be 190 °C.

For `COc1ccc(-c2nc3cc(F)ccc3s2)cc1C` [Compound 22, 5-Fluoro-2-(4-methoxy-3-methylphenyl)benzothiazole], the melting point is 120 °C. For the same compound, the GI50 in the series on MDA 468 (setting [2]) was determined as 58 nM. In addition, the 50% growth inhibitory concentration (GI50) with KM 12 (setting [3]) was 18600 nM. Further, the concentration for 50% growth inhibition (GI50) with HCC 2998 (setting [4]) amounted to 540 nM. In addition, the concentration for 50% growth inhibition (GI50) with MCF-7 (setting [5]) was 48 nM.

`COc1ccc(-c2sc3ccc(F)cc3[n+]2[O-])cc1OC` [Compound 53, 2-(3,4-Dimethoxyphenyl)-5-fluorobenzothiazole N-oxide] displayed a melting point of 201.4 °C. For the same compound, the GI50 in the series with MDA 468 (setting [2]) stood at 760 nM. Further, the concentration for 50% growth inhibition (GI50) in the series with KM 12 (setting [3]) is greater than 100000 nM. The GI50 in the series on HCC 2998 (setting [4]) amounted to 40300 nM. Moreover, the GI50 with MCF-7 (setting [5]) was 920 nM.

Regarding `COc1ccc(-c2nc3cc(F)ccc3s2)cc1OC(=O)N1CCOCC1` [Compound 19, 5-Fluoro-2-[3-(morpholin-4-ylcarbonyloxy)-4-methoxyphenyl]benzothiazole], the melting point came to 170 °C. In the series with MDA 468 (value in nM), the GI50 stood at 0.64 nM. In addition, the GI50 with KM 12 (setting [3]) is 7140 nM. The GI50 in the series on HCC 2998 (setting [4]) was 7530 nM. Also, in the series with MCF-7 (setting [6]), the GI50 was found to be 0.085 nM.

In the case of `COc1ccc(-c2nc3cc(F)ccc3s2)cc1OC(=O)c1cccc([N+](=O)[O-])c1` [Compound 17, 5-Fluoro-2-[3-(3-nitrobenzoyloxy)-4-methoxyphenyl]benzothiazole], the melting point was 212 °C.

`COc1ccc(-c2nc3cc(F)ccc3s2)cc1OC(C)=O` [Compound 11, 2-(3-Acetoxy-4-methoxyphenyl)-5-fluorobenzothiazole] had a melting point of 190 °C.

`CCOc1ccc(-c2nc3cc(F)ccc3s2)cc1OCC` [Compound 46, 2-(3,4-Diethoxyphenyl)-5-fluorobenzothiazole]: the melting point lay in the range of 109 to 113 °C. Besides, in the series on MDA 468 (setting [2]), the GI50 stood at 55 nM. Moreover, the GI50 in the series on KM 12 (setting [3]) is 38500 nM. The “growth inhibitory potency in words” value in series [1] is “dyschemotherapeutic effect”. The 50% growth inhibitory concentration (GI50) in the series on MCF-7 (setting [5]) worked out at 0.7 nM. Also, the 50% growth inhibitory concentration (GI50) in the series on MCF-7 (setting [6]) amounted to 0.7 nM.

Take `COc1cc(-c2nc3cc(F)ccc3s2)ccc1OC(=O)N1CCOCC1` [Compound 20, 5-Fluoro-2-[4-(morpholin-4-ylcarbonyloxy)-3-methoxyphenyl]benzothiazole]: the melting point worked out at 126 °C.
